Measurements from patent US9394297B2, “Amides as pim inhibitors” (AMGEN INC., priority 2012, dated 2016).
Like-named read-outs stand apart in the source and are kept apart here.

Experiments:
Pim-1 = Pim-1 (Homo sapiens (Human), UniProt P11309); experiment: Pim-Mn enzyme assay (HTRF, 384-well), Pim-1; format: biochemical; conditions: read-out: Pim-1-Mn IC50 IP
Pim-2 = Pim-2 (Homo sapiens (Human), UniProt Q9P1W9); experiment: Pim-Mn enzyme assay (HTRF, 384-well), Pim-2; format: biochemical; conditions: read-out: Pim-2-Mn IC50 IP
KMS-12-BM cell lines = experiment: KMS12 #2 flow cytometry assay (phospho-BAD Ser112); format: cell-based; conditions: Homo sapiens, 110 min; KMS-12-BM cells, pBAD Ser112 by flow cytometry, 110 min with compound; read-out: KMS-12-Flow IC50 IP
[1] = Pim-1 enzyme 5 pM, ATP 1.5 μM, BAD (S112) 0.5 μM, HTRF, 22-point curve
[2] = Pim-2 enzyme 0.5 pM, ATP 1.5 μM, BAD (S112) 0.5 μM, HTRF, 22-point curve

Chain of Pim-2 (Q9P1W9 whole entry): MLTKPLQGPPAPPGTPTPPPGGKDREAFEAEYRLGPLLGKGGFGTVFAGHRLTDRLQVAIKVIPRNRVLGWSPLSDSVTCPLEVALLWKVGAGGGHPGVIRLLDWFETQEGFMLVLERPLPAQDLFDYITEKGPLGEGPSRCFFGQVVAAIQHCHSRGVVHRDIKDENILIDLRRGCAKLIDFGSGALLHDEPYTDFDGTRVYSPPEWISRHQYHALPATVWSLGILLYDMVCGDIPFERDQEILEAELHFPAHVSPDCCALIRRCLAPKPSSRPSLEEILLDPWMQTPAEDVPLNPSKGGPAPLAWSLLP
Chain of Pim-1 (P11309 whole entry): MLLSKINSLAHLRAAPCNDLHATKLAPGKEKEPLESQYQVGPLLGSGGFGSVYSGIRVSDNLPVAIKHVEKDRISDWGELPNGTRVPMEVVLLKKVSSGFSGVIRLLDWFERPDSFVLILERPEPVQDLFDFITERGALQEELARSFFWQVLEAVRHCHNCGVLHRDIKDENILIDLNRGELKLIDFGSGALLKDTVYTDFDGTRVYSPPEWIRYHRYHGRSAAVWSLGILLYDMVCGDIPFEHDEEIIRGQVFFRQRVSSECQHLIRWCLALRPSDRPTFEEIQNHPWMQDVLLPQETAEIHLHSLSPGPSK

SMILES | IC50 (KMS-12-BM cell lines) | IC50 (Pim-1; [1]) | IC50 (Pim-2; [2]) | IC50 (Pim-1) | IC50 (Pim-2)
Cc1nc2cccc(-c3cc4c([nH]3)C(C)(C)NC4=O)c2nc1NC(C)(C)C [Example 466, 2-(3-(tert-butylamino)-2-methyl-5-quinoxalinyl)-6,6-dimethyl-5,6-dihydropyrrolo[3,4-b]pyrrol-4(1H)-one] | 75.5 nM |  |  | 2.28 nM | 1.93 nM
Cc1nc2cccc(-c3cc4c([nH]3)CNC4=O)c2nc1NCC(F)(F)F [Example 301, 2-(2-methyl-3-((2,2,2-trifluoroethyl)amino)-5-quinoxalinyl)-5,6-dihydropyrrolo[3,4-b]pyrrol-4(1H)-one] | 341 nM | 1.25 nM | 1.91 nM |  | 
Cc1nccn1-c1cnc2cccc(-c3cc4c([nH]3)CCNC4=O)c2n1 [Example 320] | > 40000 nM | 176 nM | 272 nM |  | 
CNc1nc2cccc(-c3cc4c([nH]3)CCNC4=O)c2nc1NC(C)(C)C [Example 344, 2-(3-(tert-butylamino)-2-(methylamino)-5-quinoxalinyl)-1,5,6,7-tetrahydro-4H-pyrrolo[3,2-c]pyridin-4-one] | 202 nM | 1.19 nM | 5.61 nM |  | 
Cc1ccccc1-c1nc2c(-c3cc4c([nH]3)CCNC4=O)cccc2nc1C [Example 426, 2-(2-Methyl-3-(o-tolyl)quinoxalin-5-yl)-6,7-dihydro-1H-pyrrolo[3,2-c]pyridin-4(5H)-one] | > 40000 nM | 52.3 nM | 127 nM |  | 
Cc1nc2cccc(-c3cc4c([nH]3)[C@H](C)NC4=O)c2nc1NCC(F)(F)F [Example 293, (6S)-6-methyl-2-(2-methyl-3-((2,2,2-trifluoroethyl)amino)-5-quinoxalinyl)-5,6-dihydropyrrolo[3,4-b]pyrrol-4(1H)-one] | 410 nM | 6.37 nM | 6.02 nM |  | 
Cc1nc2cccc(-c3cc4c([nH]3)CCNC4=O)c2nc1NC(=N)N [Example 447, 1-(3-methyl-8-(4-oxo-4,5,6,7-tetrahydro-1H-pyrrolo[3,2-c]pyridin-2-yl)quinoxalin-2-yl)guanidine] | 2630 nM | 133 nM | 139 nM |  | 
CC(C)Nc1nc2c(-c3cc4c([nH]3)CCNC4=O)cccc2c(=O)n1-c1ccccn1 [Example 415, 2-((1-methylethyl)amino)-8-(4-oxo-4,5,6,7-tetrahydro-1H-pyrrolo[3,2-c]pyridin-2-yl)-3-(2-pyridinyl)-4(3H)-quinazolinone] | 5860 nM | 10.9 nM | 29.4 nM |  | 
Cc1nc2ccc(F)c(-c3cc4c([nH]3)CCNC4=O)c2nc1NC(C)C [Example 373, 2-(6-fluoro-3-(isopropylamino)-2-methylquinoxalin-5-yl)-6,7-dihydro-1H-pyrrolo[3,2-c]pyridin-4(5H)-one 2,2,2-trifluoroacetate] | 94.3 nM | 1.8 nM | 1.63 nM |  | 
CC(C)Nc1nc2c(-c3cc4c([nH]3)CCNC4=O)cccc2c(=O)n1-c1ccccc1 [Example 402, 2-((1-methylethyl)amino)-8-(4-oxo-4,5,6,7-tetrahydro-1H-pyrrolo[3,2-c]pyridin-2-yl)-3-phenyl-4(3H)-quinazolinone] | 590 nM | 5.91 nM | 5.87 nM |  | 
Cc1nc2cccc(-c3cc4c([nH]3)CCN(CO)C4=O)c2nc1NC(C)(C)C [Example 299, 2-(3-(tert-butylamino)-2-methylquinoxalin-5-yl)-5-(hydroxymethyl)-6,7-dihydro-1H-pyrrolo[3,2-c]pyridin-4(5H)-one] | > 40000 nM | 7 nM | 9 nM |  | 
Cc1nc2cccc(-c3cc4c(n3C(=O)OC(C)(C)C)CCNC4=O)c2nc1NC(C)(C)C [Example 290, tert-butyl 2-(3-(tert-butylamino)-2-methylquinoxalin-5-yl)-4-oxo-4,5,6,7-tetrahydro-1H-pyrrolo[3,2-c]pyridine-1-carboxylate] | 4190 nM | 39.7 nM | 35.8 nM |  | 
Cc1nc2cccc(-c3cc4c([nH]3)CCNC4=O)c2nc1N1CC(S(C)(=O)=O)C1 [Example 318, 2-(2-methyl-3-(3-(methylsulfonyl)-1-azetidinyl)-5-quinoxalinyl)-1,5,6,7-tetrahydro-4H-pyrrolo[3,2-c]pyridin-4-one] | > 40000 nM | 34.1 nM | 26.7 nM |  | 

Continued by falling IC50 (KMS-12-BM cell lines), values first:

IC50 (KMS-12-BM cell lines) | IC50 (Pim-1; [1]) | IC50 (Pim-2; [2]) | SMILES | IC50 (Pim-1) | IC50 (Pim-2)
151 nM | 1.98 nM | 1.95 nM | C[C@@H](O)c1nc2cccc(-c3cc4c([nH]3)CCNC4=O)c2nc1NC(C)(C)C [Example 311, (R)-2-(3-(tert-butylamino)-2-(1-hydroxyethyl)quinoxalin-5-yl)-6,7-dihydro-1H-pyrrolo[3,2-c]pyridin-4(5H)-one] |  | 
143 nM | 0.992 nM | 0.272 nM | Cc1nc2ccc(F)c(-c3cc4c([nH]3)CCNC4=O)c2nc1NC(C)(C)CO [Example 370, 2-(6-fluoro-3-((1-hydroxy-2-methylpropan-2-yl)amino)-2-methylquinoxalin-5-yl)-6,7-dihydro-1H-pyrrolo[3,2-c]pyridin-4(5H)-one] |  | 
142 nM | 0.345 nM | 0.297 nM | Cc1nc2cccc(-c3cc4c([nH]3)CNC4=O)c2nc1NC1CC1 [Example 363, 2-(3-(cyclopropylamino)-2-methylquinoxalin-5-yl)-5,6-dihydropyrrolo[3,4-b]pyrrol-4(1H)-one] |  | 
123 nM | 0.271 nM | 0.195 nM | CCc1nc2cccc(-c3cc4c([nH]3)CCNC4=O)c2nc1NC(C)(C)C [Example 312, 2-(3-(tert-butylamino)-2-ethylquinoxalin-5-yl)-6,7-dihydro-1H-pyrrolo[3,2-c]pyridin-4(5H)-one] |  | 
88.4 nM | 1.42 nM | 1.37 nM | Cc1nc2cccc(-c3cc4c([nH]3)C(CO)NC4=O)c2nc1NC1(C)CC1 (stereo not drawn) [Example 360, 6-(hydroxymethyl)-2-(2-methyl-3-((1-methylcyclopropyl)amino)quinoxalin-5-yl)-5,6-dihydropyrrolo[3,4-b]pyrrol-4 (1H)-one] |  | 
75.2 nM | 0.303 nM | 0.278 nM | Cc1nc2ccc(F)c(-c3cc4c([nH]3)C3(CC3)NC4=O)c2nc1NC1CC1 [Example 283, 2′-(3-(cyclopropylamino)-6-fluoro-2-methylquinoxalin-5-yl)-1′H-spiro[cyclopropane-1,6′-pyrrolo[3,4-b]pyrrol]-4′(5′H)-one] |  | 
49.6 nM | 0.0339 nM | 0.0783 nM | Cc1nc2cccc(-c3[nH]c4c(c3Cl)C(=O)NC4)c2nc1NC1(C)CC1 [Example 358, 3-Chloro-2-(2-methyl-3-((1-methylcyclopropyl)amino)quinoxalin-5-yl)-5,6-dihydropyrrolo[3,4-b]pyrrol-4(1H)-one] |  | 
35 nM | 0.074 nM | 0.13 nM | C[C@H]1NC(=O)c2cc(-c3cccc4c(=O)n(C)c(NC5(C)CCC5)nc34)[nH]c21 [Example 465, 3-methyl-2-((1-methylcyclobutyl)amino)-8-((6R)-6-methyl-4-oxo-1,4,5,6-tetrahydropyrrolo[3,4-b]pyrrol-2-yl)-4(3H)-quinazolinone] |  | 
11.3 nM | 0.0376 nM | 0.0484 nM | Cc1nc2ccc(F)c(-c3cc4c([nH]3)[C@@H](C)NC4=O)c2nc1NC1(C)CC1 [Example 379, (R)-2-(6-fluoro-2-methyl-3-((1-methylcyclopropyl)amino)quinoxalin-5-yl)-6-methyl-5,6-dihydropyrrolo[3,4-b]pyrrol-4(1H)-one] |  | 
